Laboratory results as given in patent publication US6916789B2, “Peyer's patch and/or M-cell targeting ligands” (Merrion Research I Limited, priority 2001, dated 2005).
Where no end group is shown, it is not given here. [ ]: non-standard residue; d: D form.

Experiments:
[1] = test system: intestinal tissue of different species namely dog, mouse, pig, and rat; assay: Peptide binding to intestinal tissue of different species; conditions: biotin-tagged peptides
Method: (§1) Peptide sequences (SEQ ID NOs:3, 7, 8, 9 and 14) were synthesized with biotin tags at the amino terminal for all peptides and additionally at the carboxyl terminal for SEQ ID NOs:8 and 14. Binding of these peptides to intestinal tissue of different species namely dog, mouse, pig, and rat was performed. […] (See FIGS. 14A-14H). Binding of peptides (SEQ ID NOs:8 and 14) to rat tissue from different organs, namely liver, lung, mesenteric lymph nodes, spleen and kidney, was performed. […] (See FIGS. 15A-15E).

Caco-2 homogenates [2] = assay: Synthetic peptide ELISA-based binding to Caco-2 homogenates (streptavidin-peroxidase detection); design: species or system human; conditions: for peptide binding: biotin-tagged peptides, Example 5; for binder category / binding to epithelium: ELISA, intestinal epithelial tissue, FIGS. 17A-17B Caco-2 homogenates; for Binding Assay results (Caco-2), category / Binding Assay results (Caco-2), Kd: Tables 9 and 10
Method: In order to prepare the Caco-2 cell membrane and cytosolic fractions, confluent Caco-2 cell monolayers (grown in 75 cm^2 flasks for up to 1 week at 37° C. and 5% CO2) were washed twice in Dulbecco's PBS (DPBS). The cell monolayers were then treated with 10 mM EDTA-DPBS for 5-10 minutes at 37° C. and the cells were harvested by centrifugation at 1000 rpm for 5 minutes. The cells were then washed 3×in DPBS. The cell pellet was resuspended in 3 volumes of ice-cold HED buffer (20 mM HEPES (pH 7.67), 1 mM EGTA, 0,5 mM dithiothreitol, 1 mM phenylmethylsuphonyl fluoride (PMSF)) and the cells were allowed to swell for 5 minutes on ice. The cells were then homogenized for 30 seconds. The cell homogenates were then centrifuged in hard walled tubes at 40,000 rpm for 45 minutes at 4° C. (ultracentrifuge Ti90 rotor). The supernatant was removed and the pellet resuspended in HEDG buffer (20 mM HEPES (pH 7.67), 1 mM EGTA, 0.5 mM dithiothreithol, 100 mM NaCl, 10% glycerol, 1 mM PMSF). Three volumes of buffer were then added and the pellet was resuspended and centrifuged again at 1000 rpm for 2 minutes. The supernatant was removed and stored on ice. The procedure was repeated adding the second supernatant to the first and then the procedure was repeated 2-3 more times. The protein concentration was determined using the Bio-Rad protein assay. All fractions were stored at −80° C.
(§2) Peptide sequences (SEQ ID NOs: 3, 4, 5, 7, 8, 9, 10, 11, 14, 15, 16, 17, 19, 20, 26, 28, 29, 30) were synthesized with biotin tags at the amino terminal for all peptides and additionally at the carboxyl terminal for SEQ ID NOs:8 and 14. Binding of these peptides to Caco-2 homogenates and/or to rat intestinal tissue homogenates was tested in an ELISA-based assay with streptavidin-peroxidase detection. […] (See FIGS. 13A-13N).

[3] = test system: rat intestinal tissue homogenates; assay: Synthetic peptide ELISA-based binding to rat intestinal tissue homogenates; conditions: biotin-tagged peptides; Example 5
Method: The rat tissue homogenates were prepared by harvesting rat GI and Peyer's patch and storing them on ice until needed, or 1-2 hours. The tissue was then put into homogenization buffer (250 mM Sucrose, 12 mM Tris, 16 mM EDTA) with protease inhibitor cocktail. A hand-held homogenizer was used to break up the tissue for 3-4 minutes. The contents of the homogenizer were then transferred to microfuge tubes and spun at 1500 rpm for 1 minute. The supernatant was taken off and measured for protein content using the Bio-Rad Assay. Specificity studies were then run to allow differentiation between Peyer's patch specific and non-specific binding properties. The 55 high-binding clones were assayed for binding to rat small intestinal homogenates (i.e., homogenate membrane fractions) with and without Peyer's Patch tissue (i.e., tissue homogenate membrane fractions) present. (See FIGS. 6 and 7). The negative control was M13 mp18 with no peptide insert.
as §2

Caco-2 homogenates [4] = assay: Peptide coated particles ELISA-based binding to Caco-2 homogenates; design: species or system human; conditions: for binding of peptide coated particles: peptide adsorbed to streptavidin particles (0.289 μm)
Method: Several phage-derived peptides (SEQ ID NOs: 25, 31, 32, 33, and 40) were adsorbed to streptavidin particles (0.289 μm). Peptide coated particles were tested in an ELISA-based assay for binding to Caco-2 homogenates. […] In addition, when one double-mutant peptide ligand (SEQ ID NO:33), is adsorbed to polystyrene particles binding that is approximately 60% of that of the parent peptide is observed (See FIGS. 19A-19B).

[5] = test system: intestinal epithelial tissue; assay: Cysteine binding studies: co-incubation with free L-cysteine; conditions: L-cysteine 100 mM to 0.003 mM; peptide 6.25-25 μg/ml
Method: FIG. 16A is a graph of the binding of SEQ ID NO:8 at a concentration of 25 μg/ml to intestinal epithelial tissue in the presence of varying concentrations of free L-cysteine as a function of absorbance at 650 nm.
Peptide SEQ ID NO:8, at a concentration of 6.25 μg/ml, 12.5 μg/ml and 25 μg/ml, was co-incubated with L-cysteine over the concentration range of 100 mM to 0.003 mM. Peptide SEQ ID NO:25, at a concentration of 6.25 μg/ml was co-incubated with L-cysteine over the concentration range of 100 mM to 0.003 mM.

[6] = test system: rat tissue from different organs, namely liver, lung, mesenteric lymph nodes, spleen and kidney; assay: Peptide binding to rat tissue from different organs
Method: as §1

[7] = test system: human Peyer's patch tissue sections; assay: Biotinylated peptide binding to human Peyer's patch tissue sections (streptavidin-HRP/DAB staining); conditions: biotinylated peptide at 50 μg/ml; for binding to human Peyer's patch: 1 hour
Method: Three synthetic peptides (SEQ ID NO:8, 25 and 14) derived from isolated clones were biotinylated and tested for binding to human Peyer's patch tissue sections. In addition, a known negative binding peptide was included as a negative control. Paraffin sections of human Peyer's patch were deparaffinized and […]. The sections were rinsed in PBS. The antigenic determinants on the tissue were unmasked by microwaving in 2.1 g/L acetic acid for 5 minutes and allowed to cool at room temperature for 20 minutes while covered in plastic wrap. After 20 minutes, the sections were washed in PBS and then blocked in endogenous peroxidase in 1% hydrogen peroxide in methanol for 10 minutes. The rinse was repeated and the sections were blocked with 2% BSA in PBS for 20 minutes at room temperature. The sections were incubated with peptide at 50 μg/ml in […] in PBS for 1 hour at room temperature. Control tissue was treated with BSA alone. The sections were rinsed with 0.05% Tween in PBS. Streptavidin-HRP at 1/500 in 2% BSA was added for 30-60 minutes at room temperature. Again, the sections were rinsed with PBS/Tween. DAB substrate was added for up to 5 minutes, and the reaction was stopped by immersing the slides in water. The sections were counterstained using Haematoxlin for 50 seconds and then rinsed in water. The slides were differentiated in 1% acid alcohol for 5-10 seconds and then rinsed in water. The slides were mounted using aqueous mounting medium and a cover slip.

M-cells = assay: Peptide coated fluorescent polystyrene particles in mouse intestinal loops, confocal microscopy; assay type: in vivo; conditions: fluorescent polystyrene particles (0.289 μm), 30 minutes incubation in loops
Method: Biotinylated SEQ ID NO:40 was adsorbed to the surface of fluorescent polystyrene particles (0.289 μm) using routine methodologies at room temperature. Mouse intestinal loops containing one or more polystyrene suspensions (typically 300 μl containing 5.0×10^10 particles per ml) were incubated for 30 minutes. The Peyer's patches were excised, fixed in methanol and the M cells were counter-stained with UEA1-rhodamine for subsequent analysis by confocal microscopy. Stained tissues were examined on a BioRad MRC 600 confocal laser-scanning microscope.

Substance | binder category / binding to epithelium (Caco-2 homogenates [2]) | Binding Assay results (Caco-2), category (Caco-2 homogenates [2]) | Binding Assay results (Caco-2), Kd (Caco-2 homogenates [2]) | further results
DYDSLSWRSTLH (polypeptide ligand) [SEQ ID NO:3] |  |  |  | differences in binding profiles to tissue of different species [1]: No major differences; peptide binding (Caco-2 homogenates [2]): High binding; peptide binding [3]: High binding
DYDSLSWRSTLHGGHESSH (polypeptide ligand) [SEQ ID NO:43] |  |  |  | effect of added Zinc-binding motif (HESSH) on binding (Caco-2 homogenates [2]; compared with SEQ ID NO:3): Enhanced binding
KPAYTHEYRWLA (polypeptide ligand) [SEQ ID NO:7] |  |  |  | differences in binding profiles to tissue of different species [1]: No major differences
LETTAASLAYPS (polypeptide ligand) [SEQ ID NO:33] | binding to the epithelium is abrogated | No binding |  | binding relative to that of the parent peptide (Caco-2 homogenates [4]; peptide adsorbed to polystyrene particles): approximately 60%; binding of peptide coated particles (Caco-2 homogenates [4]): Binding was retained
LETTAASLCYPS [SEQ ID NO:31] | binding is still retained | Medium binder | (Kd˜9 μg/ml) | binding of peptide coated particles (Caco-2 homogenates [4]): Binding was retained
LETTCASLAYPS [SEQ ID NO:32] | binding is still retained | Medium binder | (Kd˜8 μg/ml) | binding of peptide coated particles (Caco-2 homogenates [4]): Binding was retained
LETTCASLCYPS (polypeptide ligand) [SEQ ID NO:8] | medium binder | Medium binder |  | differences in binding profiles to tissue of different species [1]: No major differences; effect of biotin tag at amino or carboxyl end on binding affinities (Caco-2 homogenates [2]): No differences; peptide binding (Caco-2 homogenates [2]): High binding; effect of free L-cysteine on peptide binding [5]: prevented binding; peptide binding [3]: High binding; differences in binding profiles to tissues of different organs [6]: No major differences; staining localisation [7]: positive staining on the apical side of human enterocytes; binding to human Peyer's patch [7]: Positive binding
LETTCASLCYPS [8 biotinylated derivative] |  | Medium binder | (Kd˜8 μg/ml) | 
LETTCASLCYPS [8 dansyl-lysine derivative] |  | High binder | (Kd˜1 μg/ml) | 
LETTSASLSYPS (polypeptide ligand) [SEQ ID NO:34] |  | No binding |  | 
LGTDWHSVSYTL (polypeptide ligand) [SEQ ID NO:9] |  |  |  | differences in binding profiles to tissue of different species [1]: No major differences
NTRIPEPIRFYM (polypeptide ligand) [SEQ ID NO:14] | low to medium binder |  |  | differences in binding profiles to tissue of different species [1]: No major differences; differences in binding profiles to tissues of different organs [6]: No major differences; binding to human Peyer's patch [7]: negative for binding
VCSNMYFSCRLS (polypeptide ligand) [SEQ ID NO:24] | medium binder |  |  | peptide binding (Caco-2 homogenates [2]): High binding; peptide binding [3]: High binding
VPPHPMTYSAQY (polypeptide ligand) [SEQ ID NO:38] | binding to the epithelium is abrogated | No binding |  | 
VPPHPMTYSCQY (polypeptide ligand) [SEQ ID NO:25] | highest binder |  |  | peptide binding (Caco-2 homogenates [2]): High binding; effect of free L-cysteine on peptide binding [5]: prevented binding; peptide binding [3]: High binding; staining localisation [7]: positive staining on the apical side of human enterocytes; binding to human Peyer's patch [7]: Positive binding; binding of peptide coated particles (Caco-2 homogenates [4]): Binding was retained
VPPHPMTYSCQY [25 Dansyl-lysine derivative] |  |  | (Kd < 1 μg/ml) | 
VPPHPMTYSCQY [25 biotinylated derivative] |  | High binder | (Kd < 5 μg/ml) | 
VPPHPMTYSSQY (polypeptide ligand) [SEQ ID NO:39] |  | No binding |  | 
lettcaslcyps ([dL][dE][dT][dT][dC][dA][dS][dL][dC][dY][dP][dS]; cysteine pairing not given here) [SEQ ID NO:36] |  |  | (Kd˜30.53 μg/ml) | 
spyclsacttel ([dS][dP][dY][dC][dL][dS][dA][dC][dT][dT][dE][dL]; cysteine pairing not given here) [SEQ ID NO:35] |  | Medium binder | (Kd˜13.91 μg/ml) | 
vpphpmtyscqy ([dV][dP][dP][dH][dP][dM][dT][dY][dS][dC][dQ][dY]) [SEQ ID NO:37] | retained high binding |  | (Kd˜10 μg/ml) | 
yqcsytmphppv ([dY][dQ][dC][dS][dY][dT][dM][dP][dH][dP][dP][dV]) [SEQ ID NO:40] | retained high binding |  | (Kd˜10 μg/ml) | binding of peptide coated particles (Caco-2 homogenates [4]): Binding was retained; binding and uptake of peptide coated particles (M-cells): binding and uptake into M-cells
